Test results published in the kinase profiling compilation of Christmann-Franck et al. (2016).

Key:
Test in all cases: KINOMEscan competition binding
Settings in all cases: compound 10.0 µM
DMPK (human) = DMPK (human) (UniProt Q09013)
RPS6KA1 KD2 (human) = RPS6KA1 KD2 (human) (UniProt Q15418)
CAMK1G (human) = CAMK1G (human) (UniProt Q96NX5)
RIOK2 (human) = RIOK2 (human) (UniProt Q9BVS4)
EPHB1 (human) = EPHB1 (human) (UniProt P54762)
CSNK1G2 (human) = CSNK1G2 (human) (UniProt P78368)
RIPK2 (human) = RIPK2 (human) (UniProt O43353)
PAK1 (human) = PAK1 (human) (UniProt Q13153)
RPS6KA4 KD2 (human) = RPS6KA4 KD2 (human) (UniProt O75676)
ACVR2A (human) = ACVR2A (human) (UniProt P27037)
PIP4K2B (human) = PIP4K2B (human) (UniProt P78356)
RPS6KA1 KD1 (human) = RPS6KA1 KD1 (human) (UniProt Q15418)
ULK2 (human) = ULK2 (human) (UniProt Q8IYT8)
FLT1 (human) = FLT1 (human) (UniProt P17948)
NEK6 (human) = NEK6 (human) (UniProt Q9HC98)
PDGFRA (human) = PDGFRA (human) (UniProt P16234)
MAP2K2 (human) = MAP2K2 (human) (UniProt P36507)
[1] = tested on: EIF2AK4 KD2 (human), Q9P2K8 [S808G]
CDK16 (human) = CDK16 (human) (UniProt Q00536)
FGR (human) = FGR (human) (UniProt P09769)
AURKB (human) = AURKB (human) (UniProt Q96GD4)
WEE2 (human) = WEE2 (human) (UniProt P0C1S8)
IRAK3 (human) = IRAK3 (human) (UniProt Q9Y616)
TTK (human) = TTK (human) (UniProt P33981)
PRKAA2 (human) = PRKAA2 (human) (UniProt P54646)
NTRK2 (human) = NTRK2 (human) (UniProt Q16620)
MAP2K1 (human) = MAP2K1 (human) (UniProt Q02750)
MAP4K3 (human) = MAP4K3 (human) (UniProt Q8IVH8)
[2] = tested on: KIT (human), P10721 [V559D]
PRKCD (human) = PRKCD (human) (UniProt Q05655)
KDR (human) = KDR (human) (UniProt P35968)
CDK19 (human) = CDK19 (human) (UniProt Q9BWU1)
STK33 (human) = STK33 (human) (UniProt Q9BYT3)
CDK8 (human) = CDK8 (human) (UniProt P49336)
CSNK2A1 (human) = CSNK2A1 (human) (UniProt P68400)
SGK110 (human) = SGK110 (human) (UniProt P0C264)
EIF2AK2 (human) = EIF2AK2 (human) (UniProt P19525)
NEK9 (human) = NEK9 (human) (UniProt Q8TD19)
MAP2K6 (human) = MAP2K6 (human) (UniProt P52564)
STK17A (human) = STK17A (human) (UniProt Q9UEE5)

FGR (human), sequence (P09769 whole entry, looked up): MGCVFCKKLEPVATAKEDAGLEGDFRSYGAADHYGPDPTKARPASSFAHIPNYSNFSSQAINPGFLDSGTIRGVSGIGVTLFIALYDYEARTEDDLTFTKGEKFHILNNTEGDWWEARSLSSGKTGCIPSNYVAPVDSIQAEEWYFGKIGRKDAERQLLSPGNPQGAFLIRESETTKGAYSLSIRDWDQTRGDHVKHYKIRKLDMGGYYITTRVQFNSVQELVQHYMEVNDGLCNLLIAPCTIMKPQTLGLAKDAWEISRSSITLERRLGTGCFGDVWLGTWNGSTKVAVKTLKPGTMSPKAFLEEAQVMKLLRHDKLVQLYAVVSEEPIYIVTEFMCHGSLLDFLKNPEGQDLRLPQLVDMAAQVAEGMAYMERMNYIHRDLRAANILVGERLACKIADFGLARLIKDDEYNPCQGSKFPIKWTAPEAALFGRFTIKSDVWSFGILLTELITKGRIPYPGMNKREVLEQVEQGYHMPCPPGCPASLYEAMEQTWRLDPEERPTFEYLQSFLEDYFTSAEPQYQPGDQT
STK33 (human), sequence (Q9BYT3 whole entry, looked up): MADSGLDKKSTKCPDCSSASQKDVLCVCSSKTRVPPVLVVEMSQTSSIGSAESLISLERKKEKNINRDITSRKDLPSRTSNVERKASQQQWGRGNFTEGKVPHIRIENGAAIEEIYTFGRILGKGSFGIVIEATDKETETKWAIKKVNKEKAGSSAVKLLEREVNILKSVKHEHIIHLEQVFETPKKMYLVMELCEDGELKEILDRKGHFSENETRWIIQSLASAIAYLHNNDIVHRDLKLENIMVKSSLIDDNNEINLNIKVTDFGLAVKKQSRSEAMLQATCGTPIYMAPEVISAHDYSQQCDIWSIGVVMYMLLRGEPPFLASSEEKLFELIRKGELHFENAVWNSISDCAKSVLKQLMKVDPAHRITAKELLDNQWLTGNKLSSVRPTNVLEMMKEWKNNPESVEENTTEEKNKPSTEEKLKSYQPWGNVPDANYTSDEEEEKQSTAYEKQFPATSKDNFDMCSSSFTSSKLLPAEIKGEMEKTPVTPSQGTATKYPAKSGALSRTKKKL
NTRK2 (human), sequence (Q16620 whole entry, looked up): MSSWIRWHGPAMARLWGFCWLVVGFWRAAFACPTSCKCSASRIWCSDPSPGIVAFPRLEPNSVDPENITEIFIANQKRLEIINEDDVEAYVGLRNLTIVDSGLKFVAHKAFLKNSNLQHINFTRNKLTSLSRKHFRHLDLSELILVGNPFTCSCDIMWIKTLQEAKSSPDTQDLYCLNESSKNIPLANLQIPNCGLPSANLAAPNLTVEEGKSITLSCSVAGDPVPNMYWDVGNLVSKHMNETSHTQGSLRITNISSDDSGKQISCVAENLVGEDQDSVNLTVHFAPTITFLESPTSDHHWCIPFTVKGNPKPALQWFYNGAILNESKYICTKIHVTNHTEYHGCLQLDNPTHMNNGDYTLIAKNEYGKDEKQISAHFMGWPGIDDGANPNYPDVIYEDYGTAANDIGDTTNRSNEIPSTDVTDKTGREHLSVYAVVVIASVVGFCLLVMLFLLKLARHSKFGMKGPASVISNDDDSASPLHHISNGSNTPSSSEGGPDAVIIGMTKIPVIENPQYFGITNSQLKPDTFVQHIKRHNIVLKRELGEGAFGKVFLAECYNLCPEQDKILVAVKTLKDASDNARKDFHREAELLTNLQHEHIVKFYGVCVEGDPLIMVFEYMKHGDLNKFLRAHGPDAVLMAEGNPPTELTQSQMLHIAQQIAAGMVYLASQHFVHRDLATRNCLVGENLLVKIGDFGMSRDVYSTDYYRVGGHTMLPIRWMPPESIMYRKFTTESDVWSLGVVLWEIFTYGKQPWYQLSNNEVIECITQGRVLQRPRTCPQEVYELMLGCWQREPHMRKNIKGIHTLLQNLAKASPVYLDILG
KDR (human), sequence (P35968 whole entry, looked up): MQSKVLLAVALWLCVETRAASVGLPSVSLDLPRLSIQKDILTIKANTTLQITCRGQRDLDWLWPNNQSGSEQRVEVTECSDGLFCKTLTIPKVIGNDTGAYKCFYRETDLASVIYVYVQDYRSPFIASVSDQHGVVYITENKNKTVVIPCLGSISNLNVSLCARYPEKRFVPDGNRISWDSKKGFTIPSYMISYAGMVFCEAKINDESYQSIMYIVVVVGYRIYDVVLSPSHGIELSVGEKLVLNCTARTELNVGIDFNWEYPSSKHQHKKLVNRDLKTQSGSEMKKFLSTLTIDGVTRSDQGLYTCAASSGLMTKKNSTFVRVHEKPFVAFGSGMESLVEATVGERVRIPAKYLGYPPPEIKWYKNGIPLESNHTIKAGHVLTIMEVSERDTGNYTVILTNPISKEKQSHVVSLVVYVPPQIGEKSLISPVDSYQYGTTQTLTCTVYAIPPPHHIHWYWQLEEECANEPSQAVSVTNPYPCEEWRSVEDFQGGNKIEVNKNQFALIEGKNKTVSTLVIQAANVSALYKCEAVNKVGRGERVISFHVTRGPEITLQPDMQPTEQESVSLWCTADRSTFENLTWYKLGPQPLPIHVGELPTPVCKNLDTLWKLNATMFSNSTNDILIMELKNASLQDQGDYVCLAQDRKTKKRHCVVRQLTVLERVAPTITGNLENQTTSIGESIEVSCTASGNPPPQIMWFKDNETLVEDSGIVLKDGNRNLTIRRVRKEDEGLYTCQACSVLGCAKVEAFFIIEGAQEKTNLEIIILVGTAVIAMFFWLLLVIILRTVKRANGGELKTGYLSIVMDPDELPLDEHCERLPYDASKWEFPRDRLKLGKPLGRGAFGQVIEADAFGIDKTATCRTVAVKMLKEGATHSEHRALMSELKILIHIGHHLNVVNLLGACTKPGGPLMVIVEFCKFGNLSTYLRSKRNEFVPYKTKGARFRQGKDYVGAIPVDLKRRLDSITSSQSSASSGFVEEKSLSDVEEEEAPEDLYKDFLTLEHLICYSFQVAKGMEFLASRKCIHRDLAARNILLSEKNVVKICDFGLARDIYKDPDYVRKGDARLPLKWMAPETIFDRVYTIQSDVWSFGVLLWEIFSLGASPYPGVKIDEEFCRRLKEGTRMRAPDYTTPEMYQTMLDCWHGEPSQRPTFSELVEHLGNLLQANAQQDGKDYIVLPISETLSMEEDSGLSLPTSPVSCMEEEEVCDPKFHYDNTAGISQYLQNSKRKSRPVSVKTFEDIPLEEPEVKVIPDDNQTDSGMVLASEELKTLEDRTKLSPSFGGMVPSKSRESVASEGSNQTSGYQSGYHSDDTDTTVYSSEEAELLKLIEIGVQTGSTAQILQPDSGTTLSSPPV
ULK2 (human), sequence (Q8IYT8 whole entry, looked up): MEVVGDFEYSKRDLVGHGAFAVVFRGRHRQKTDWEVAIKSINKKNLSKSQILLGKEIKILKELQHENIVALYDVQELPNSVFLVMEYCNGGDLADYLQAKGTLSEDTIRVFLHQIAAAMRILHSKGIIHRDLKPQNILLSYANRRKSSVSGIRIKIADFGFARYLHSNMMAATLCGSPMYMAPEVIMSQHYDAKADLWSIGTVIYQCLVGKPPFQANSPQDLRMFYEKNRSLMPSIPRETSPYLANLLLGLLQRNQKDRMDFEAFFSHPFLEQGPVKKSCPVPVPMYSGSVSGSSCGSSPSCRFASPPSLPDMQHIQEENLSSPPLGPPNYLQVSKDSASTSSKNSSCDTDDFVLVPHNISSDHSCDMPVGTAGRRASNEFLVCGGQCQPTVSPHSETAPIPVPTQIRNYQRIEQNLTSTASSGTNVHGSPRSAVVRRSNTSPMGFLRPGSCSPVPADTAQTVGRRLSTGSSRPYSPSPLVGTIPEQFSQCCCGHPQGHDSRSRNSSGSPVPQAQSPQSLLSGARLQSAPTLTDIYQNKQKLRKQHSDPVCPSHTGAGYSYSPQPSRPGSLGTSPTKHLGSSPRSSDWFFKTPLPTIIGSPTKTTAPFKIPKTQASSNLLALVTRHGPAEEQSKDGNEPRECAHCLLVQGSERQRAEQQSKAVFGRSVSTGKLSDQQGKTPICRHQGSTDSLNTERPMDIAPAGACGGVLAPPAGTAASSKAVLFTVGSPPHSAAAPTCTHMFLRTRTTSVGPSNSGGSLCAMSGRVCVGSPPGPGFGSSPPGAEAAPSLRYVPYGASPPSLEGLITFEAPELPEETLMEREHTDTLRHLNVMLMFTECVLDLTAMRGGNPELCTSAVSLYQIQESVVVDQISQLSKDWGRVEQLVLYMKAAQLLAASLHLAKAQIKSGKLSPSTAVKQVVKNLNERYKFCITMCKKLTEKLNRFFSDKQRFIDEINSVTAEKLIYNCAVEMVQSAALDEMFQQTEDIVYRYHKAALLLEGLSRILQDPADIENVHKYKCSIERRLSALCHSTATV
WEE2 (human), sequence (P0C1S8 whole entry, looked up): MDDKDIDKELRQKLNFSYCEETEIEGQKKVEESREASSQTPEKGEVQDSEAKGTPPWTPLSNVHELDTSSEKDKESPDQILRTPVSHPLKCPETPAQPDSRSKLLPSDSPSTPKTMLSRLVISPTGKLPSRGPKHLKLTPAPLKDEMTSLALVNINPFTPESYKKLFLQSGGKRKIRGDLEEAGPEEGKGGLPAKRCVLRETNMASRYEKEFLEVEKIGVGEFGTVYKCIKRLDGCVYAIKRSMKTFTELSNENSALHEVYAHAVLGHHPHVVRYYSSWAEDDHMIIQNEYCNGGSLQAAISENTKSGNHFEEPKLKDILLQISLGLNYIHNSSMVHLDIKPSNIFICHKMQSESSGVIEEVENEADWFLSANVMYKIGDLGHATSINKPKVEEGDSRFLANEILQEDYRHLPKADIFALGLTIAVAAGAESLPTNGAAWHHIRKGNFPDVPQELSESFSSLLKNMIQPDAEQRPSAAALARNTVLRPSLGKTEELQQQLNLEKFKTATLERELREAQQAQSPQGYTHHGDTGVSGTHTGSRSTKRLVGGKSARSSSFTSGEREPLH

SMILES | kinase still bound, per cent of control (DMPK (human)) [%] | kinase still bound, per cent of control (RPS6KA1 KD2 (human)) [%] | kinase still bound, per cent of control (CAMK1G (human)) [%] | kinase still bound, per cent of control (RIOK2 (human)) [%] | kinase still bound, per cent of control (EPHB1 (human)) [%] | kinase still bound, per cent of control (CSNK1G2 (human)) [%] | kinase still bound, per cent of control (RIPK2 (human)) [%] | kinase still bound, per cent of control (PAK1 (human)) [%] | kinase still bound, per cent of control (RPS6KA4 KD2 (human)) [%] | kinase still bound, per cent of control (ACVR2A (human)) [%] | kinase still bound, per cent of control (PIP4K2B (human)) [%] | kinase still bound, per cent of control (RPS6KA1 KD1 (human)) [%] | kinase still bound, per cent of control (ULK2 (human)) [%] | kinase still bound, per cent of control (FLT1 (human)) [%] | kinase still bound, per cent of control (NEK6 (human)) [%] | kinase still bound, per cent of control (PDGFRA (human)) [%] | kinase still bound, per cent of control (MAP2K2 (human)) [%] | kinase still bound, per cent of control [1] [%] | kinase still bound, per cent of control (CDK16 (human)) [%] | kinase still bound, per cent of control (FGR (human)) [%] | also measured
CCN1CCN(Cc2ccc(Nc3ncc4c(n3)N(C)c3ccccc3C(=O)N4C)cc2C(F)(F)F)CC1 | 91 | 23 | 61 | 100 | 100 | 8.9 | 6.4 | 86 | 100 | 56 | 31 | 100 | 0 | 100 | 64 | 100 | 89 | 88 | 92 | 26 | kinase still bound, per cent of control (AURKB (human)): 0.95%; kinase still bound, per cent of control (WEE2 (human)): 64%; kinase still bound, per cent of control (IRAK3 (human)): 69%; kinase still bound, per cent of control (TTK (human)): 77%; kinase still bound, per cent of control (PRKAA2 (human)): 5%; kinase still bound, per cent of control (NTRK2 (human)): 60%; kinase still bound, per cent of control (MAP2K1 (human)): 86%; kinase still bound, per cent of control (MAP4K3 (human)): 11%; kinase still bound, per cent of control [2]: 56%; kinase still bound, per cent of control (PRKCD (human)): 100%; kinase still bound, per cent of control (KDR (human)): 100%; kinase still bound, per cent of control (CDK19 (human)): 95%; kinase still bound, per cent of control (STK33 (human)): 36%; kinase still bound, per cent of control (CDK8 (human)): 94%; kinase still bound, per cent of control (CSNK2A1 (human)): 79%; kinase still bound, per cent of control (SGK110 (human)): 0.6%; kinase still bound, per cent of control (EIF2AK2 (human)): 95%; kinase still bound, per cent of control (NEK9 (human)): 72%; kinase still bound, per cent of control (MAP2K6 (human)): 75%; kinase still bound, per cent of control (STK17A (human)): 100%
Cn1c(=O)n(-c2ccc(C(C)(C)C#N)cc2)c2c3cc(-c4cnc5ccccc5c4)ccc3ncc21 | 100 | 100 | 100 | 100 | 100 | 100 | 100 | 100 | 100 | 100 | 100 | 100 | 100 | 100 | 100 | 100 | 100 | 100 | 100 | 100 | kinase still bound, per cent of control (AURKB (human)): 100%; kinase still bound, per cent of control (WEE2 (human)): 100%; kinase still bound, per cent of control (IRAK3 (human)): 100%; kinase still bound, per cent of control (TTK (human)): 100%; kinase still bound, per cent of control (PRKAA2 (human)): 100%; kinase still bound, per cent of control (NTRK2 (human)): 100%; kinase still bound, per cent of control (MAP2K1 (human)): 100%; kinase still bound, per cent of control (MAP4K3 (human)): 100%; kinase still bound, per cent of control [2]: 100%; kinase still bound, per cent of control (PRKCD (human)): 100%; kinase still bound, per cent of control (KDR (human)): 100%; kinase still bound, per cent of control (CDK19 (human)): 100%; kinase still bound, per cent of control (STK33 (human)): 100%; kinase still bound, per cent of control (CDK8 (human)): 100%; kinase still bound, per cent of control (CSNK2A1 (human)): 100%; kinase still bound, per cent of control (SGK110 (human)): 100%; kinase still bound, per cent of control (EIF2AK2 (human)): 100%; kinase still bound, per cent of control (NEK9 (human)): 100%; kinase still bound, per cent of control (MAP2K6 (human)): 100%; kinase still bound, per cent of control (STK17A (human)): 100%
